In patent US8895585B2, “Nicotinamide derivative or salt thereof” (FUJIFILM Corporation, priority 2010, dated 2014):
Where two headings read alike, the source gives them in different places.

Legend:
[1] = molecular target: T1, glutathione S-transferase (GST)-fused full-length human Syk protein (Homo sapiens, UniProt P43405); test: Syk enzyme assay; format: biochemical; details: Syk enzyme assay, Test Example 1; read-out: IC50 of Syk-inhibitory activity
T1 construct: (GST)-fused full-length human Syk protein; GST (glutathione S-transferase); purchased Carna Biosciences
Summary of the method: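 Baculovirus-expressed enzyme (1.2 ng) was preincubated with compound in HEPES pH 7.0/MgCl2/DTT buffer, 2 min shaking then 13 min at room temperature. Biotin-EDPDYEWPSA-NH2 (0.4 μM final) and ATP (27 μM final) were added for 40 min at room temperature. EDTA stop, streptavidin-XL/PT66-K TR-FRET at 615/665 nm gave IC50.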

THP-1 cells = test: TNFα generation assay; format: cell-based, human; details: Table 22, read-out: IC50 in TNFα generation assay
Summary of the method: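 Secreted TNFα in supernatant quantified by ELISA or AlphaLISA after 7 h culture on human IgG-coated wells (10 μg/ml coating). Cells were IFN-γ-differentiated THP-1 (10 ng/ml, 2 days), exposed to compound for 30 min at room temperature before plating.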

[2] = Homo sapiens, THP-1, THP-1 cells

Row | IC50 [1] [µM] | IC50 (THP-1 cells; [2]) [µM] | IC50 (THP-1 cells; THP-1 cells) [µM] | Structure (SMILES)
1 | < 0.01 | 0.13 to 0.2 |  | NC[C@H](Nc1nc(Nc2cccc(-n3nccn3)c2)c(C(N)=O)cc1F)c1ccccc1 [Example 006-132, (R)-2-((3-(2H-1,2,3-triazol-2-yl)phenyl)amino)-6-((2-amino-1-phenylethyl)amino)-5-fluoronicotinamide]
2 | 0.01 to 0.05 | 0.13 to 0.2 |  | COc1cc(Nc2nc(N[C@@H](CN)c3ccccc3)c(F)cc2C(N)=O)ccn1 [Example 006-133, (R)-6-((2-amino-1-phenylethyl)amino)-5-fluoro-2-((2-methoxypyridin-4-yl)amino)nicotinamide]
3 | < 0.01 | 0.13 to 0.2 |  | CC(C)C[C@H](CN)Nc1nc(Nc2ccnc(-n3ccnn3)c2)c(C(N)=O)cc1F [Example 006-143, (R)-2-((2-(1H-1,2,3-triazol-1-yl)pyridin-4-yl)amino)-6-((1-amino-4-methylpentan-2-yl)amino)-5-fluoronicotinamide]
4 | < 0.01 |  | < 0.065 | NC(=O)c1cc(F)c(N[C@@H]2CCCC[C@@H]2N)nc1Nc1ccnc(-n2nccn2)c1 [Example 006-146, 2-((2-(2H-1,2,3-triazol-2-yl)pyridin-4-yl)amino)-6-(((1R,2S)-2-aminocyclohexyl)amino)-5-fluoronicotinamide]
5 | < 0.01 | < 0.065 |  | CC(C)C[C@H](CN)Nc1nc(Nc2ccnc(-n3cncn3)c2)c(C(N)=O)cc1F [Example 006-153, (R)-2-((2-(1H-1,2,4-triazol-1-yl)pyridin-4-yl)amino)-6-((1-amino-4-methylpentan-2-yl)amino)-5-fluoronicotinamide]
6 | < 0.01 | 0.065 to 0.13 |  | CC(C)C[C@H](CN)Nc1nc(Nc2ccnc(-n3nccn3)c2)c(C(N)=O)cc1F [Example 006-154, (R)-2-((2-(2H-1,2,3-triazol-2-yl)pyridin-4-yl)amino)-6-((1-amino-4-methylpentan-2-yl)amino)-5-fluoronicotinamide]
7 | < 0.01 | 0.065 to 0.13 |  | CC(C)C[C@H](CN)Nc1nc(Nc2ccnc(-c3ccoc3)c2)c(C(N)=O)cc1F [Example 006-155, (R)-6-((1-amino-4-methylpentan-2-yl)amino)-5-fluoro-2-((2-(furan-3-yl)pyridin-4-yl)amino)nicotinamide]
8 | < 0.01 | 0.065 to 0.13 |  | CC(C)[C@H](CN)Nc1nc(Nc2ccc3ncccc3c2)c(C(N)=O)cc1F [Example 006-160, (R)-6-((1-amino-3-methylbutan-2-yl)amino)-5-fluoro-2-(quinolin-6-ylamino)nicotinamide]
9 | < 0.01 |  | < 0.065 | NC(=O)c1cc(F)c(N[C@@H]2CCCC[C@@H]2N)nc1Nc1cncc(-c2ccccc2F)c1 [Example 006-166, 6-(((1R,2S)-2-aminocyclohexyl)amino)-5-fluoro-2-((5-(2-fluorophenyl)pyridin-3-yl)amino)fluoronicotinamide]
10 | < 0.01 | < 0.065 |  | NC(=O)c1cc(F)c(N[C@@H]2CCCC[C@@H]2N)nc1Nc1cncc(C2CC2)c1 [Example 006-167, 6-(((1R,2S)-2-aminocyclohexyl)amino)-2-((5-cycylopropylpyridin-3-yl)amino)-5-fluoronicotinamide]
11 | < 0.01 |  | < 0.065 | NC(=O)c1cc(F)c(N[C@@H]2CCCC[C@@H]2N)nc1Nc1cncc(-n2cccn2)c1 [Example 006-168, 2-((5-(1H-pyrazol-1-yl)pyridin-3-yl)amino)-6-(((1R,2S)-2-aminocyclohexyl)amino)-5-fluoronicotinamide]
12 | < 0.01 | < 0.065 |  | CCCOc1cc(Nc2nc(N[C@@H]3CCCC[C@@H]3N)c(F)cc2C(N)=O)ccn1 [Example 006-169, 6-(((1R,2S)-2-aminocyclohexyl)amino)-5-fluoro-2-((2-propoxypyridin-4-yl)amino)nicotinamide]
13 | < 0.01 |  | 0.065 to 0.13 | COc1ccc2cc(Nc3nc(N[C@@H]4CCCC[C@@H]4N)c(F)cc3C(N)=O)cnc2c1 [Example 006-172, 6-(((1R,2S)-2-aminocyclohexyl)amino)-5-fluoro-2-((7-methoxyquinolin-3-yl)amino)nicotinamide]
14 | < 0.01 | < 0.065 |  | CC[C@@H](Nc1nc(Nc2ccc3ncccc3c2)c(C(N)=O)cc1F)[C@H](C)N [Example 006-178, 6-(((2S,3R)-2-aminopentan-3-yl)amino)-5-fluoro-2-((quinolin-6-yl)amino)nicotinamide]

Continued, compound first:

Row | Structure (SMILES) | IC50 [1] [µM] | IC50 (THP-1 cells; [2]) [µM] | IC50 (THP-1 cells; THP-1 cells) [µM]
15 | CC(C)C[C@H](CN)Nc1nc(Nc2ccc3c(cnn3C)c2)c(C(N)=O)cc1F [Example 006-142, (R)-6-((1-amino-4-methylpentan-2-yl)amino)-5-fluoro-2-((1-methyl-1H-indazol-5-yl)amino)nicotinamide] | < 0.01 | < 0.065 | 
16 | CC(C)C[C@H](CN)Nc1nc(Nc2cncc(C3CC3)c2)c(C(N)=O)cc1F [Example 006-144, (R)-6-((1-amino-4-methylpentan-2-yl)amino)-2-((5-cyclopropylpyridin-3-yl)amino)-5-fluoronicotinamide] | < 0.01 | 0.065 to 0.13 | 
17 | CCOc1cc(Nc2nc(N[C@@H](CN)CC(C)C)c(F)cc2C(N)=O)ccn1 [Example 006-145, (R)-6-((1-amino-4-methylpentan-2-yl)amino)-2-((2-ethoxypyridin-4-yl)amino)-5-fluoronicotinamide] | < 0.01 | 0.065 to 0.13 | 
18 | CC(C)C[C@H](CN)Nc1nc(Nc2ccc3scnc3c2)c(C(N)=O)cc1F [Example 006-147, (R)-6-((1-amino-4-methylpentan-2-yl)amino)-2-(benzo[d]thiazol-5-ylamino)-5-fluoronicotinamide] | < 0.01 | 0.13 to 0.2 | 
19 | Cc1cnc2cc(Nc3nc(N[C@@H](CN)CC(C)C)c(F)cc3C(N)=O)ccc2n1 [Example 006-148, (R)-6-((1-amino-4-methylpentan-2-yl)amino)-5-fluoro-2-((2-methylquinoxalin-6-yl)amino)nicotinamide] | < 0.01 | 0.13 to 0.2 | 
20 | COc1cc(Nc2nc(N[C@@H](CN)CC(C)C)c(F)cc2C(N)=O)cc(OC)n1 [Example 006-156, (R)-6-((1-amino-4-methylpentan-2-yl)amino)-2-((2,6-dimethoxypyridin-4-yl)amino)-5-fluoronicotinamide] | < 0.01 | 0.13 to 0.2 | 
21 | CC(C)CC(Nc1nc(Nc2ccc3ncccc3c2)c(C(N)=O)cc1F)[C@H](C)N (stereo partly drawn) [Example 006-159, 6-(((2S)-2-amino-5-methylhexan-3-yl)amino)-5-fluoro-2-(quinolin-6-ylamino)nicotinamide] | < 0.01 | 0.13 to 0.2 | 
22 | CCC[C@H](CN)Nc1nc(Nc2ccc3ncccc3c2)c(C(N)=O)cc1F [Example 006-161, (R)-6-((1-aminopentan-2-yl)amino)-5-fluoro-2-(quinolin-6-ylamino)nicotinamide] | < 0.01 | < 0.065 | 
23 | CC(C)C[C@H](CN)Nc1nc(Nc2cncc(-n3cccn3)c2)c(C(N)=O)cc1F [Example 006-170, (R)-2-((5-(1H-pyrazol-1-yl)pyridin-3-yl)amino)-6-((1-amino-4-methylpentan-2-yl)amino)-5-fluoronicotinamide] | < 0.01 | 0.065 to 0.13 | 
24 | COc1ccc2cc(Nc3nc(N[C@@H](CN)CC(C)C)c(F)cc3C(N)=O)cnc2c1 [Example 006-176, (R)-6-((1-amino-4-methylpentan-2-yl)amino)-5-fluoro-2-((7-methoxyquinolin-3-yl)amino)nicotinamide] | < 0.01 | 0.065 to 0.13 | 
